# Reference: PubChem BioAssay AID1963875 (Molecular Pharmacology Branch, DTP, NCI, 2024)
# Test system: KRAS-mutant PDC complex spheroid viability
# Assay: Anticancer human tumor 186277-243-T-J2-PDC patient-derived colon adenocarcinoma cell line growth inhibition [KRAS2]
# Settings: for viability, T/C: stronger effect = lower value
# In short: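 Combination screen of spheroid viability in tumor-cell co-cultures with endothelial (HUVEC) and mesenchymal stem cell stroma. Each agent was tested in half-log dilutions, topping at clinical Cmax or at 10 microM without a known Cmax.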
# [1] = curve of first compound, second compound 0.1 µM
# [2] = curve of first compound, second compound 0.316 µM
# [3] = curve of first compound, second compound 1 µM
# [4] = curve of first compound, second compound 3.16 µM
# [5] = curve of first compound, second compound 10 µM
# [6] = second compound 0.1 µM, first compound 0.0316 µM
# [7] = second compound 0.316 µM, first compound 0.0316 µM
# [8] = second compound 1 µM, first compound 0.0316 µM
# [9] = second compound 3.16 µM, first compound 0.0316 µM
# [10] = second compound 10 µM, first compound 0.0316 µM
# 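Wherever viability, T/C is given: viability read after seven days of compound exposure; 100% = DMSO vehicle-treated spheroids so lower means less viable.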
structure (smiles),measurement,setting,value
O=C(c1cc(Cc2n[nH]c(=O)c3ccccc23)ccc1F)N1CCN(C(=O)C2CC2)CC1 + CC1OCC2(CCN(c3cnc(Sc4ccnc(N)c4Cl)c(N)n3)CC2)C1N,IC50,[1],6.48 µM
same,IC50,[2],6.08 µM
same,IC50,[3],3.95 µM
same,IC50,[4],1.9 µM
same,IC50,[5],0.614 µM
same,"viability, T/C",[6],118%
same,"viability, T/C","second compound 0.1 µM, first compound 0.1 µM",112%
same,"viability, T/C","second compound 0.1 µM, first compound 0.316 µM",114%
same,"viability, T/C","second compound 0.1 µM, first compound 1 µM",109%
same,"viability, T/C","second compound 0.1 µM, first compound 3.16 µM",81%
same,"viability, T/C","second compound 0.1 µM, first compound 10 µM",31.3%
same,"viability, T/C",[7],129%
same,"viability, T/C","second compound 0.316 µM, first compound 0.1 µM",124%
same,"viability, T/C","second compound 0.316 µM, first compound 0.316 µM",106%
same,"viability, T/C","second compound 0.316 µM, first compound 1 µM",115%
same,"viability, T/C","second compound 0.316 µM, first compound 3.16 µM",75%
same,"viability, T/C","second compound 0.316 µM, first compound 10 µM",28.8%
same,"viability, T/C",[8],122%
same,"viability, T/C","second compound 1 µM, first compound 0.1 µM",113%
same,"viability, T/C","second compound 1 µM, first compound 0.316 µM",126%
same,"viability, T/C","second compound 1 µM, first compound 1 µM",103%
same,"viability, T/C","second compound 1 µM, first compound 3.16 µM",56.8%
same,"viability, T/C","second compound 1 µM, first compound 10 µM",23.8%
same,"viability, T/C",[9],92.2%
same,"viability, T/C","second compound 3.16 µM, first compound 0.1 µM",94.9%
same,"viability, T/C","second compound 3.16 µM, first compound 0.316 µM",87.4%
same,"viability, T/C","second compound 3.16 µM, first compound 1 µM",70.3%
same,"viability, T/C","second compound 3.16 µM, first compound 3.16 µM",33.9%
same,"viability, T/C","second compound 3.16 µM, first compound 10 µM",16.3%
same,"viability, T/C",[10],86.7%
same,"viability, T/C","second compound 10 µM, first compound 0.1 µM",66%
same,"viability, T/C","second compound 10 µM, first compound 0.316 µM",62.9%
same,"viability, T/C","second compound 10 µM, first compound 1 µM",45.8%
same,"viability, T/C","second compound 10 µM, first compound 3.16 µM",24.9%
same,"viability, T/C","second compound 10 µM, first compound 10 µM",14.1%
CC(=O)Nc1cccc(-n2c(=O)n(C3CC3)c(=O)c3c(Nc4ccc(I)cc4F)n(C)c(=O)c(C)c32)c1 + C=CC(=O)N1CCN(c2nc(=O)n(-c3c(C)ccnc3C(C)C)c3nc(-c4c(O)cccc4F)c(F)cc23)C(C)C1,IC50,[1],0.000625 µM
same,IC50,[2],0.000659 µM
same,IC50,[3],0.000583 µM
same,IC50,[4],0.000444 µM
same,IC50,[5],0.00011 µM
same,"viability, T/C","second compound 0.1 µM, first compound 0.0001 µM",99.2%
same,"viability, T/C","second compound 0.1 µM, first compound 0.000316 µM",96.3%
same,"viability, T/C","second compound 0.1 µM, first compound 0.001 µM",18%
same,"viability, T/C","second compound 0.1 µM, first compound 0.00316 µM",8.67%
same,"viability, T/C","second compound 0.1 µM, first compound 0.01 µM",2.97%
same,"viability, T/C",[6],1.31%
same,"viability, T/C","second compound 0.316 µM, first compound 0.0001 µM",100%
same,"viability, T/C","second compound 0.316 µM, first compound 0.000316 µM",99.7%
same,"viability, T/C","second compound 0.316 µM, first compound 0.001 µM",21.9%
same,"viability, T/C","second compound 0.316 µM, first compound 0.00316 µM",9%
same,"viability, T/C","second compound 0.316 µM, first compound 0.01 µM",3.1%
same,"viability, T/C",[7],1.46%
same,"viability, T/C","second compound 1 µM, first compound 0.0001 µM",111%
same,"viability, T/C","second compound 1 µM, first compound 0.000316 µM",86.7%
same,"viability, T/C","second compound 1 µM, first compound 0.001 µM",17.4%
same,"viability, T/C","second compound 1 µM, first compound 0.00316 µM",7.6%
same,"viability, T/C","second compound 1 µM, first compound 0.01 µM",4.82%
same,"viability, T/C",[8],1.76%
same,"viability, T/C","second compound 3.16 µM, first compound 0.0001 µM",90.9%
same,"viability, T/C","second compound 3.16 µM, first compound 0.000316 µM",65.8%
same,"viability, T/C","second compound 3.16 µM, first compound 0.001 µM",11.9%
same,"viability, T/C","second compound 3.16 µM, first compound 0.00316 µM",9.32%
same,"viability, T/C","second compound 3.16 µM, first compound 0.01 µM",2.47%
same,"viability, T/C",[9],1.47%
same,"viability, T/C","second compound 10 µM, first compound 0.0001 µM",53.6%
same,"viability, T/C","second compound 10 µM, first compound 0.000316 µM",9.73%
same,"viability, T/C","second compound 10 µM, first compound 0.001 µM",3.83%
same,"viability, T/C","second compound 10 µM, first compound 0.00316 µM",4.23%
same,"viability, T/C","second compound 10 µM, first compound 0.01 µM",0.78%
same,"viability, T/C",[10],0.43%
COc1cc2nccc(Oc3ccc(NC(=O)C4(C(=O)Nc5ccc(F)cc5)CC4)cc3)c2cc1OC,"viability, T/C",compound 0.0316 µM,92.6% [middle of 5 runs]
same,"viability, T/C",compound 0.1 µM,99.7% [middle of 5 runs]
same,"viability, T/C",compound 0.316 µM,104% [middle of 5 runs]
same,"viability, T/C",compound 3.16 µM,13.8% [middle of 5 runs]
same,IC50,curve of compound,2.02 µM [middle of 4 runs]
